Experimental findings from ChEMBL document CHEMBL1152343, “2-Arylbenzofuran Derivatives from Morus cathayana” (J Nat Prod, 2009) are described below.

Converted amounts (≈) assume the structure as drawn.

Assay type in all cases: functional, cell-based
For assay [1], the system named is A549. Kind of assay: Cytotoxicity against human A549 […] by MTT assay. On the technique in general: Formazan colour is commonly taken as a measure of viable cells.
Assay [2] concerns HCT-8. Kind of assay: Cytotoxicity against human HCT8 […] by MTT assay.
Assay [3] has as its system BGC-823. Kind of assay: Cytotoxicity against human BGC823 […] by MTT assay.
The subject of assay [4] is A2780. Kind of assay: Cytotoxicity against human A2780 […] by MTT assay.

A word on the IC50: it is the concentration at which inhibition is half-maximal. Read a high IC50 as weaker potency. Regarding `CC(C)=CCc1c(O)cc(O)cc1-c1cc2ccc(O)c(CC=C(C)C)c2o1` [CATHAFURAN B], the IC50 in assay [1], in assay [2], in assay [3] and in assay [4] was 6.27 µg/mL (≈ 16.6 µM) in each case.

With `CC(C)=CCc1c(O)cc2c(c1-c1cc3ccc(O)cc3o1)C=CC(C)(C)O2` [CATHAFURAN C], the IC50 in assay [2] amounted to 7.33 µg/mL (≈ 19.5 µM); in assay [4], 7.61 µg/mL (≈ 20.2 µM).

As for `O=c1[nH]cc(F)c(=O)[nH]1` [FLUOROURACIL], the IC50 in assay [1], in assay [2], in assay [3] and in assay [4] was 0.2 µg/mL (≈ 1.54 µM) in each case.
